Three compounds from paper PMC8308845, “Discovery of Novel Chemical Series of OXA-48 β-Lactamase Inhibitors by High-Throughput Screening” (Pharmaceuticals, 2021) can be followed below.

“And” between values parts separate entries of the source, which are not always exact repeats. Equal values may be shown once. Read-outs that look alike come from different tables or passages of the source.

The subject of one assay is E. coli ATCC25922. The experiment in a line: MIC by broth microdilution, antibiotic-sensitive strain. The assay is classed as cell-based. To be noted: Escherichia coli. The source says:
(§1) To evaluate the capability of restoring β-lactam susceptibility, the two most promising representatives of SC_2 (ID3) and SC_7 (ID2) were screened alone and in combination with ampicillin (AMP) and IMP against sensitive and resistant Gram-negative bacteria. Avibactam and tazobactam were also included in the MIC characterization as BLI reference compounds. Specifically, we used E. coli ATCC25922 as antibiotic-sensitive strain, while E. coli ATCC BAA-2523 and K. pneumoniae ATCC BAA-2524 as β-lactam-resistant bacteria, producing OXA-48 carbapenemase.
(§2) Test compounds and tazobactam were tested at 32 µg/mL, while avibactam was applied at 4 µg/mL. […] Both antibiotics were selected for the combination study as they can be hydrolyzed by the target OXA-48 enzyme.
(§3) MIC values were determined by the broth dilution method and interpreted using published guidelines described by Clinical and Laboratory Standards Institute (CLSI).
(§4) All BLIs were dissolved in 100% DMSO and they were tested at a fixed concentration of 32 µg/mL and 1% of DMSO final concentration. Avibactam was used as reference β-lactamase inhibitor. All antimicrobials were prepared in line with CLSI susceptibility testing standards. AMP (USP # 1033000; batch no. K1M493) was dissolved at 5.12 mg/mL, IMP (USP # 1337809; batch no. R038R0) and avibactam (Biochem # NXL 104; batch no. 20180726) were dissolved at 1.28 mg/mL in the respective solvents recommended by CLSI (2). Solutions at 4X the final concentrations of the test range were made in Cation adjusted Mueller-Hinton broth (CA-MHB, BD # 212322; batch no. 6117994; Expiry date: 29.02.2020) by serial dilutions, and then diluted 2-fold with CA-MHB (for antimicrobials alone), or with the BLIs/avibactam (for combinations of new/reference inhibitors and antimicrobials). Moreover, all BLIs were tested alone at a fixed concentration of 32 μg/mL. The final concentration of DMSO in the test tubes was 1% for each different combination.
(§5) 50 μL of each well were then transferred from the masterblock into 96-well plates to whom were then added 50 μL of the final inoculum. MIC tests were performed by broth microdilution in line with CLSI susceptibility testing standards. Bacterial inocula were prepared at ca. 1 × 10^6 CFU/mL by diluting 100-fold a 0.5 McFarland suspension in CA-MHB with TES (TREK Diagnostic Systems, Product code: T3462; Batch: 356347; Expiry date: 12-Jun-2019). 50 μL of antibacterial solutions at 2 × the final concentrations were diluted 2-fold with 50 μL of inoculum to give a final inoculum of ca. 5 × 10^5 CFU/mL and desired test concentrations of antibacterial agents. Test plates were incubated according to CLSI guidelines and read visually. MIC values corresponded to the first well with no visible growth.
On the technique in general: Dilution methods test growth across graded concentrations, often in twofold steps.

Assay [1] has as its system K. pneumoniae ATCC BAA-2524. The experiment in a line: MIC by broth microdilution, β-lactam-resistant strain producing OXA-48. Conditions: for MIC: Klebsiella pneumoniae. The assay is classed as cell-based, Klebsiella pneumoniae.
Source text: as §1, §2, §3, §4, §5

The next assay has as its system E. coli ATCC BAA-2523. The description is as above. The assay is classed as cell-based, Escherichia coli. To be noted: for MIC: Escherichia coli.
Source text: as §1, §2, §3, §4, §5

Another assay has as its target T1, OXA-48 (Klebsiella pneumoniae, UniProt Q6XEC0).
T1 construct: made in house; host or cells: E. coli BL21(DE3), T7 expression system
The experiment in a line: OXA-48 primary enzymatic assay (nitrocefin substrate, fluorescence-quenching readout). The assay is classed as biochemical. To be noted: dose–response, median of triplicate wells; 15 min preincubation, 25 µM nitrocefin. As for the experimental part: After an initial pilot run (three plates, consisting of 960 randomly selected compounds), the primary screening of the subset plates was carried out at 20 µM in single point against OXA-48 enzyme in a nitrocefin-based assay, using the fluorescence-quenching readout. This enzymatic assay employs the cephalosporin nitrocefin as OXA-48 substrate and takes advantage of the fluorescent properties of white microtiter plates. Chromogenic nitrocefin is hydrolyzed by β-lactamases to yield a product with increased absorbance properties (~495 nm) that quenches the plate fluorescence by absorbing the plate’s emission light. In this assay, test compounds that inhibit OXA-48 catalytic activity are predicted to reduce nitrocefin quenching of plate fluorescence, resulting in a quantitative increase in well fluorescence (ON-system for inhibitors). The nitrocefin-based epi-absorbance readout system has been successfully applied in HTS campaigns on other β-lactamases, such as IMP-1 and VIM-2, with the identification of inhibitors belonging to novel scaffolds displaying a favourable degree of selectivity and sub-micromolar potency.
The screening results were expressed as activity percent. […] Overall, the primary assay robustness was good, with Robust Z Prime factor (RZ′) equal to 0.86.
In total, 256 active molecules (125 from the subset and 131 from the full set) were then assayed in dose–response at eight concentrations from 60 to 0.002 µM with interplate triplicate data points.
The blaOXA gene coding for the OXA-48 ß-lactamase, originally cloned from the K. pneumonia 11978 (a clinical isolate from Istanbul Faculty Hospital, Istanbul, Turkey) was overexpressed via a T7 expression system in E. coli BL21(DE3), and its product, native protein, (final yield of 30 mg/L of culture) was subjected to several purification steps, including ion-exchange chromatography with Q-Sepharose and 20 mM Tris-HCl buffer (pH 9.0), followed by chromatography with S-Sepharose columns and 100 mM sodium phosphate buffer (pH 5.8). Elution of the beta-lactamase was performed with a K2SO4 gradient. Peaks of beta-lactamase activity were concentrated and were dialyzed with 100 mM phosphate buffer (pH 7.0). The OXA-48 enzyme was purified to homogeneity (with a degree of purity around 95.4%.)-as measured by 12% SDS PAGE [23]. OXA-48 protein stock solution (2 mg/mL) was finally prepared in 20 mM Hepes (pH 8,1). OXA-48 β-lactamase specific activity was measured by following the hydrolysis of 100 μM nitrocefin (ε: 17,000 M-1 cm^−1 at 482 nm; Δε: 15,000 M-1 cm^−1 at 482 nm) and corresponding to 60.45 μmoles min^−1 mg^−1 of OXA-48 (kcat = 28.85 s^−1) enzyme. A MW of 28,147 g/mol, calculated from the enzyme sequence was confirmed by MALDI-TOF analysis with a Mass error of ± 2.8 Da.
The primary assay was developed to monitor the enzymatic activity of OXA-48 taking advantage of the spectroscopic properties of white microtiter plates (Optiplate-384, PerkinElmer, #6007290), as indicated by Zuck et al.. Nitrocefin is chromogenic substrate for beta-lactamases with λmax = 395 nm (yellow). Upon hydrolysis by OXA-48, nitrocefin yields (2R)-2-[(R)-carboxy[2-(thiophen-2-yl)acetamido]methyl]-5-[(E)-2-(2,4-dinitrophenyl)ethenyl]-3,6-dihydro-2H-1,3-thiazine-4-carboxylic acid, with increased absorbance properties at λmax = 495 nm. Spectroscopic features of the reaction product are exploited to quench the plate intrinsic fluorescence by absorbing the plate’s emission light, which can be monitored by exciting the reaction at 485 nm and recording the emission at 520 nm. Therefore, the primary assay for HTS was an ON-assay, in which compounds targeting OXA-48 were predicted to elicit an increase of the fluorescence signal.
The primary assay was performed in reaction buffer (20 mM Hepes pH 8.0, 12.5 mM NaCl, 0.005% BSA, 0.0005% Brij-35) in the presence of 0.0014 ng/µL OXA-48 and 25 µM nitrocefin in a final volume of 20 µL/well in 384 MTP format. […]

Setting [2] is: β-lactam alone, read-out: MIC β-lactam.
The mark [3] stands for this setting: ATCCBAA2524, β-lactam alone, read-out: MIC β-lactam.
Where [4] appears, read: ATCCBAA2523, β-lactam alone, read-out: MIC β-lactam.

T1 sequence (Q6XEC0 23-265, looked up): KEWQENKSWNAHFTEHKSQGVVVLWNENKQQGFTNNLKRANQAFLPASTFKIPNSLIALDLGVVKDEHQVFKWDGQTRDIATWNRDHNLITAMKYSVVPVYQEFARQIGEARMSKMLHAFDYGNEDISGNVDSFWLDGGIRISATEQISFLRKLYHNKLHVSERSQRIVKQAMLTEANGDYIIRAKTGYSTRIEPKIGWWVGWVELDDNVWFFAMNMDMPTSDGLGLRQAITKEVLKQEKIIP

As usually defined, the MIC is the least concentration at which growth counts as inhibited. Consider `CC1(C)S[C@@H]2[C@H](NC(=O)[C@H](N)c3ccccc3)C(=O)N2[C@H]1C(=O)O` [AMP, ampicillin], for which the MIC with E. coli ATCC25922 (setting [2]) is 4 µg/mL; in assay [1] (setting [3]), greater than 512 µg/mL; in the assay with E. coli ATCC BAA-2523 (setting [4]) it was greater than 512 µg/mL. Further, the “MIC β-lactam” value (in assay [1] (β-lactam alone); in the assay on E. coli ATCC BAA-2523 (β-lactam alone)) was greater than 512 µg/mL throughout.

A word on the AC50: it is the concentration giving half of the maximal activity seen. Read a high AC50 as activity only at high concentration. On to `O=C(O)c1ccc(/C=N/n2c(S)nnc2-c2ccc(Cl)cc2)cc1` [ID3], for which the MIC in the assay with E. coli ATCC25922 (no β-lactam, BLI tested at 32 µg/mL, read-out: MIC, BLI alone) was greater than 32 µg/mL; in assay [1] (ATCCBAA2524, no β-lactam, BLI tested at 32 µg/mL, read-out: MIC, BLI alone) it was greater than 32 µg/mL; in the assay with E. coli ATCC BAA-2523 (ATCCBAA2523, no β-lactam, BLI tested at 32 µg/mL, read-out: MIC, BLI alone), greater than 32 µg/mL. On OXA-48, the AC50 is 723 nM and 720 nM.

On to `C[C@@H](O)[C@H]1C(=O)N2C(C(=O)O)=C(SCCN=CN)C[C@H]12` [IMP, imipenem], for which the values for the MIC (in the assay on E. coli ATCC25922 (setting [2]); in assay [1] (setting [3]); in the assay with E. coli ATCC BAA-2523 (setting [4])) were 0.12 µg/mL, 4 µg/mL and 2 µg/mL, respectively.
